# From paper PMC5218480 (PLoS ONE, 2017)
# Test system: MV-4-11 cells
# Assay: Gene expression microarray analysis (Affymetrix PrimeView) and GSEA
# Assay type: cell-based, human
# Parameters: RFU PODN (11730768_x_at) / Fold change /veh PODN (11730768_x_at) / RFU LINC00158 (11744669_a_at) / Fold change /veh LINC00158 (11744669_a_at) / RFU DUSP10 (11751237_a_at) / Fold change /veh DUSP10 (11751237_a_at) / RFU ID3 (11757404_x_at) / Fold change /veh ID3 (11757404_x_at) / RFU PLEKHG5 (11737974_s_at) / Fold change /veh PLEKHG5 (11737974_s_at) / RFU LRRC4B (11730491_at) / Fold change /veh LRRC4B (11730491_at) / RFU GIMAP4 (11747438_a_at) / Fold change /veh GIMAP4 (11747438_a_at) / RFU KRT8 (11758183_x_at) / Fold change /veh KRT8 (11758183_x_at) / RFU CNN1 (11734310_a_at) / Fold change /veh CNN1 (11734310_a_at) / RFU VPS37D (11726825_at) / Fold change /veh VPS37D (11726825_at) / RFU C10orf10 (11716522_x_at) / Fold change /veh C10orf10 (11716522_x_at) / RFU KIR2DL2 /// KIR2DL4 /// KIR2DL5A /// KIR2DL5B /// KIR2DS1 /// KIR2DS2 /// KIR2DS3 /// KIR2DS4 /// KIR3DL3 /// KIR3DL3 /// KIR3DS1 (11738374_at) / Fold change /veh KIR2DL2 /// KIR2DL4 /// KIR2DL5A /// KIR2DL5B /// KIR2DS1 /// KIR2DS2 /// KIR2DS3 /// KIR2DS4 /// KIR3DL3 /// KIR3DL3 /// KIR3DS1 (11738374_at) / RFU C1QL1 (11718748_at) / Fold change /veh C1QL1 (11718748_at) / RFU TMPRSS4 (11747572_a_at) / Fold change /veh TMPRSS4 (11747572_a_at) / RFU HAMP (11756126_x_at) / Fold change /veh HAMP (11756126_x_at) / RFU RNFT2 (11725882_a_at) / Fold change /veh RNFT2 (11725882_a_at) / RFU NR4A2 (11747474_a_at) / Fold change /veh NR4A2 (11747474_a_at) / RFU ABCC12 (11746883_a_at) / Fold change /veh ABCC12 (11746883_a_at) / RFU TMEM136 (11760407_x_at) / Fold change /veh TMEM136 (11760407_x_at) / RFU CLDN22 /// WWC2 (11732394_at) / Fold change /veh CLDN22 /// WWC2 (11732394_at) / RFU HLA-DPB1 (11760878_x_at) / Fold change /veh HLA-DPB1 (11760878_x_at) / RFU SPINT1 (11716480_a_at) / Fold change /veh SPINT1 (11716480_a_at) / RFU GAP43 (11754022_s_at) / Fold change /veh GAP43 (11754022_s_at) / RFU A4GNT (11735810_at) / Fold change /veh A4GNT (11735810_at) / RFU PRB3 (11715151_x_at) / Fold change /veh PRB3 (11715151_x_at) / RFU TUBB4B (11761932_at) / Fold change /veh TUBB4B (11761932_at) / RFU CAPN14 (11732068_a_at) / Fold change /veh CAPN14 (11732068_a_at) / RFU TMCC2 (11721928_a_at) / Fold change /veh TMCC2 (11721928_a_at) / RFU IRGQ (11745062_a_at) / Fold change /veh IRGQ (11745062_a_at) / RFU FAM174B (11720279_a_at) / Fold change /veh FAM174B (11720279_a_at) / RFU TMPRSS4 (11748680_a_at) / Fold change /veh TMPRSS4 (11748680_a_at) / RFU FAM212B (11763350_a_at) / Fold change /veh FAM212B (11763350_a_at) / RFU PLEKHG5 (11743358_a_at) / Fold change /veh PLEKHG5 (11743358_a_at) / RFU ZSCAN30 (11745921_a_at) / Fold change /veh ZSCAN30 (11745921_a_at) / RFU CMKLR1 (11741424_a_at) / Fold change /veh CMKLR1 (11741424_a_at) / RFU LOC101060620 /// MAPK8IP1 (11723275_at) / Fold change /veh LOC101060620 /// MAPK8IP1 (11723275_at) / RFU SPTSSB (11747773_x_at) / Fold change /veh SPTSSB (11747773_x_at) / RFU PRSS12 (11739890_at) / Fold change /veh PRSS12 (11739890_at) / RFU BIN1 (11741810_x_at) / Fold change /veh BIN1 (11741810_x_at) / RFU WNT11 (11732464_a_at) / Fold change /veh WNT11 (11732464_a_at) / RFU C10orf10 (11716521_a_at) / Fold change /veh C10orf10 (11716521_a_at) / RFU C5orf56 (11738089_at) / Fold change /veh C5orf56 (11738089_at) / RFU CYB561 (11721691_x_at) / Fold change /veh CYB561 (11721691_x_at) / RFU ANKRD19P (11752326_a_at) / Fold change /veh ANKRD19P (11752326_a_at) / RFU OR2T12 /// OR2T33 /// OR2T8 (11738714_s_at) / Fold change /veh OR2T12 /// OR2T33 /// OR2T8 (11738714_s_at) / RFU VCAN (11748164_a_at) / Fold change /veh VCAN (11748164_a_at) / RFU JSRP1 (11732532_at) / Fold change /veh JSRP1 (11732532_at) / RFU KRTAP10-11 (11738290_x_at) / Fold change /veh KRTAP10-11 (11738290_x_at) / RFU MYO3A (11730013_a_at) / Fold change /veh MYO3A (11730013_a_at) / RFU EBF3 (11725865_a_at) / Fold change /veh EBF3 (11725865_a_at) / RFU CAMK2N1 (11719241_x_at) / Fold change /veh CAMK2N1 (11719241_x_at) / RFU C5orf56 (11738088_a_at) / Fold change /veh C5orf56 (11738088_a_at) / RFU OLFML3 (11715873_a_at) / Fold change /veh OLFML3 (11715873_a_at) / RFU LOC100653217 /// NTM (11731650_a_at) / Fold change /veh LOC100653217 /// NTM (11731650_a_at) / RFU MAPK11 (11762145_a_at) / Fold change /veh MAPK11 (11762145_a_at) / RFU FIZ1 (11724087_x_at) / Fold change /veh FIZ1 (11724087_x_at) / RFU OASL (11726364_x_at) / Fold change /veh OASL (11726364_x_at) / RFU SOX15 (11748057_x_at) / Fold change /veh SOX15 (11748057_x_at) / RFU CD79A (11719716_a_at) / Fold change /veh CD79A (11719716_a_at) / RFU HIST1H1D (11736915_at) / Fold change /veh HIST1H1D (11736915_at) / RFU CASKIN2 (11723855_a_at) / Fold change /veh CASKIN2 (11723855_a_at) / RFU LOC730098 (11760151_x_at) / Fold change /veh LOC730098 (11760151_x_at) / RFU OR4N2 (11742367_at) / Fold change /veh OR4N2 (11742367_at) / RFU PRRT2 (11749266_a_at) / Fold change /veh PRRT2 (11749266_a_at) / RFU SNX32 (11753110_a_at) / Fold change /veh SNX32 (11753110_a_at) / RFU CDHR5 (11726645_a_at) / Fold change /veh CDHR5 (11726645_a_at) / RFU RCAN1 (11760418_a_at) / Fold change /veh RCAN1 (11760418_a_at) / RFU FAM167A (11723789_a_at) / Fold change /veh FAM167A (11723789_a_at) / RFU FAM26E (11764081_at) / Fold change /veh FAM26E (11764081_at) / RFU ISYNA1 (11749810_s_at) / Fold change /veh ISYNA1 (11749810_s_at) / RFU ACY1 (11761880_at) / Fold change /veh ACY1 (11761880_at) / RFU 11764098_at / Fold change /veh 11764098_at / RFU SAMD14 (11745864_x_at) / Fold change /veh SAMD14 (11745864_x_at) / RFU NPB (11741838_a_at) / Fold change /veh NPB (11741838_a_at) / RFU TMPRSS6 (11731388_a_at) / Fold change /veh TMPRSS6 (11731388_a_at) / RFU KRTAP10-2 (11738614_at) / Fold change /veh KRTAP10-2 (11738614_at) / RFU ARHGAP8 /// PRR5-ARHGAP8 (11727945_x_at) / Fold change /veh ARHGAP8 /// PRR5-ARHGAP8 (11727945_x_at) / RFU KRTAP5-7 /// NADSYN1 (11734609_at) / Fold change /veh KRTAP5-7 /// NADSYN1 (11734609_at) / RFU RASL12 (11751679_a_at) / Fold change /veh RASL12 (11751679_a_at) / RFU CDKN2B (11736163_a_at) / Fold change /veh CDKN2B (11736163_a_at) / RFU PRF1 (11729649_at) / Fold change /veh PRF1 (11729649_at) / RFU, ZNF638 /// ZNF638-IT1 / Fold change vs veh, ZNF638 /// ZNF638-IT1 / RFU, PANK3 / Fold change vs veh, PANK3 / RFU, SH3YL1 / Fold change vs veh, SH3YL1 / RFU, ZEB2 / Fold change vs veh, ZEB2 / RFU, NRIP1 / Fold change vs veh, NRIP1 / RFU, PTTG1IP / Fold change vs veh, PTTG1IP / RFU, CAPN2 / Fold change vs veh, CAPN2 / RFU, MED14 / Fold change vs veh, MED14 / RFU, SNORA58 / Fold change vs veh, SNORA58 / RFU, C1orf63 / Fold change vs veh, C1orf63 / RFU, LRRFIP1 / Fold change vs veh, LRRFIP1 / RFU, NDUFAF7 / Fold change vs veh, NDUFAF7 / RFU, SLC12A2 / Fold change vs veh, SLC12A2 / RFU, IBTK / Fold change vs veh, IBTK / RFU, ESF1 / Fold change vs veh, ESF1 / Fold change vs veh, TMEM50B / RFU, TAOK1 / Fold change vs veh, TAOK1 / RFU, ACBD3 / Fold change vs veh, ACBD3 / RFU, TMA16 / Fold change vs veh, TMA16 / RFU, RWDD3 / Fold change vs veh, RWDD3 / RFU, BCAT1 / Fold change vs veh, BCAT1 / RFU, EDEM3 / Fold change vs veh, EDEM3 / RFU, TMEM33 / Fold change vs veh, TMEM33 / RFU, WDR75 / Fold change vs veh, WDR75 / RFU, AHCTF1 / Fold change vs veh, AHCTF1 / RFU, TFRC / Fold change vs veh, TFRC / RFU, ZDHHC17 / Fold change vs veh, ZDHHC17 / RFU, NOM1 / Fold change vs veh, NOM1 / RFU, ARL8B / Fold change vs veh, ARL8B / RFU, ZBTB11 / Fold change vs veh, ZBTB11 / RFU, TAMM41 / Fold change vs veh, TAMM41 / RFU, KIAA1704 /// LOC100996395 / Fold change vs veh, KIAA1704 /// LOC100996395 / RFU, ING1 / Fold change vs veh, ING1 / RFU, TRMT61B / Fold change vs veh, TRMT61B / RFU, FUBP3 / Fold change vs veh, FUBP3 / RFU, TP53 / Fold change vs veh, TP53 / RFU, TNKS2 / Fold change vs veh, TNKS2 / RFU, ZFP14 / Fold change vs veh, ZFP14 / RFU, ACTR2 / Fold change vs veh, ACTR2 / RFU, PPP3R1 / Fold change vs veh, PPP3R1 / RFU, PIK3R1 / Fold change vs veh, PIK3R1 / RFU, HNRNPA1 / Fold change vs veh, HNRNPA1 / RFU, RNF170 / Fold change vs veh, RNF170 / RFU, ZNF28 / Fold change vs veh, ZNF28 / RFU, RNGTT / Fold change vs veh, RNGTT / RFU, OGT / Fold change vs veh, OGT / RFU, BRD1 / Fold change vs veh, BRD1 / RFU, MARS / Fold change vs veh, MARS / RFU, ZNF655 / Fold change vs veh, ZNF655 / RFU, FAHD1 / Fold change vs veh, FAHD1 / RFU, BDP1 / Fold change vs veh, BDP1 / RFU, LRRCC1 / Fold change vs veh, LRRCC1 / RFU, ARID1A / Fold change vs veh, ARID1A / RFU, ZNF146 / Fold change vs veh, ZNF146 / RFU, ZNF330 / Fold change vs veh, ZNF330 / RFU, GPN3 / Fold change vs veh, GPN3 / RFU, C9orf123 / Fold change vs veh, C9orf123 / RFU, N4BP2L2 / Fold change vs veh, N4BP2L2 / RFU, ARFIP1 / Fold change vs veh, ARFIP1 / RFU, FAM179B / Fold change vs veh, FAM179B / RFU, BCL10 / Fold change vs veh, BCL10 / RFU, UHRF1BP1L / Fold change vs veh, UHRF1BP1L / RFU, BET1 / Fold change vs veh, BET1 / RFU, CNOT2 / Fold change vs veh, CNOT2 / RFU, ZNF268 / Fold change vs veh, ZNF268 / Fold change vs veh, ZNF507 / RFU, DGCR2 / Fold change vs veh, DGCR2 / RFU, WDSUB1 / Fold change vs veh, WDSUB1 / Fold change vs veh, HSP90B1 /// MIR3652 / RFU, ADSS / Fold change vs veh, ADSS / RFU, GK / Fold change vs veh, GK / RFU, ZNF148 / Fold change vs veh, ZNF148 / RFU, TAF9 / Fold change vs veh, TAF9 / RFU, SLC1A5 / Fold change vs veh, SLC1A5 / RFU, SLMO2 / Fold change vs veh, SLMO2 / RFU, ABCC4 / Fold change vs veh, ABCC4 / RFU, LOC101060439 /// RAP1B / Fold change vs veh, LOC101060439 /// RAP1B / RFU, RFX7 / Fold change vs veh, RFX7 / RFU, GTPBP10 / Fold change vs veh, GTPBP10 / RFU, CNEP1R1 / Fold change vs veh, CNEP1R1 / RFU, BIVM-ERCC5 /// ERCC5 / Fold change vs veh, BIVM-ERCC5 /// ERCC5 / RFU, ILF3 / Fold change vs veh, ILF3 / RFU 11762660_at / Fold change /veh 11762660_at / RFU VCAN (11757783_s_at) / Fold change /veh VCAN (11757783_s_at) / RFU DDX43 (11728927_at) / Fold change /veh DDX43 (11728927_at) / RFU KRT8 (11758188_x_at) / Fold change /veh KRT8 (11758188_x_at) / RFU NKD1 (11759106_at) / Fold change /veh NKD1 (11759106_at) / RFU SRD5A1 (11742802_a_at) / Fold change /veh SRD5A1 (11742802_a_at) / RFU TPSAB1 /// TPSB2 (11721975_s_at) / Fold change /veh TPSAB1 /// TPSB2 (11721975_s_at) / RFU GSTM3 (11746129_a_at) / Fold change /veh GSTM3 (11746129_a_at) / RFU IL23R (11737362_x_at) / Fold change /veh IL23R (11737362_x_at) / RFU TMEM51 (11727254_a_at) / Fold change /veh TMEM51 (11727254_a_at) / RFU PIWIL2 (11732686_x_at) / Fold change /veh PIWIL2 (11732686_x_at) / RFU ORM1 (11744905_x_at) / Fold change /veh ORM1 (11744905_x_at) / RFU CCDC152 (11743942_at) / Fold change /veh CCDC152 (11743942_at) / RFU ECM1 (11717891_a_at) / Fold change /veh ECM1 (11717891_a_at) / RFU IL23R (11748794_a_at) / Fold change /veh IL23R (11748794_a_at) / RFU TNFAIP8L3 (11732012_x_at) / Fold change /veh TNFAIP8L3 (11732012_x_at) / RFU MBOAT4 (11741988_at) / Fold change /veh MBOAT4 (11741988_at) / RFU 11764193_at / Fold change /veh 11764193_at / RFU TMEM53 (11763286_at) / Fold change /veh TMEM53 (11763286_at) / RFU MAGEB2 (11727129_at) / Fold change /veh MAGEB2 (11727129_at) / RFU TMEM200A (11744735_a_at) / Fold change /veh TMEM200A (11744735_a_at) / RFU CCDC152 (11751479_a_at) / Fold change /veh CCDC152 (11751479_a_at) / RFU FAM211A (11726209_a_at) / Fold change /veh FAM211A (11726209_a_at) / RFU RGS16 (11746705_a_at) / Fold change /veh RGS16 (11746705_a_at) / RFU VCAN (11755009_s_at) / Fold change /veh VCAN (11755009_s_at) / RFU RHOB (11743442_s_at) / Fold change /veh RHOB (11743442_s_at) / RFU RGS16 (11720943_a_at) / Fold change /veh RGS16 (11720943_a_at) / RFU RGS16 (11720944_at) / Fold change /veh RGS16 (11720944_at) / RFU, VPS4B / Fold change vs veh, VPS4B / RFU, CREB1 / Fold change vs veh, CREB1 / RFU, DNAJC13 / Fold change vs veh, DNAJC13 / RFU, GNAQ / Fold change vs veh, GNAQ / RFU, CDK5R1 / Fold change vs veh, CDK5R1 / RFU, ZRANB3 / Fold change vs veh, ZRANB3 / RFU, CUL4A / Fold change vs veh, CUL4A / RFU, CCNY / Fold change vs veh, CCNY / RFU, UFL1 / Fold change vs veh, UFL1 / RFU, COG3 / Fold change vs veh, COG3 / RFU, DIAPH2 / Fold change vs veh, DIAPH2 / RFU, SKA2 / Fold change vs veh, SKA2 / RFU, AFF3 / Fold change vs veh, AFF3 / RFU, LMF1 / Fold change vs veh, LMF1 / RFU, IPO11 / Fold change vs veh, IPO11 / RFU, DFFB / Fold change vs veh, DFFB / RFU, FOXP1 / Fold change vs veh, FOXP1 / RFU, CARD8 / Fold change vs veh, CARD8 / RFU, STRN3 / Fold change vs veh, STRN3 / RFU, ADK / Fold change vs veh, ADK / RFU, RASSF2 / Fold change vs veh, RASSF2 / RFU, WIPF1 / Fold change vs veh, WIPF1 / RFU, LARP1B / Fold change vs veh, LARP1B / RFU, RASA1 / Fold change vs veh, RASA1 / RFU, RB1 / Fold change vs veh, RB1 / RFU, PPFIA1 / Fold change vs veh, PPFIA1 / RFU, MAT2A / Fold change vs veh, MAT2A / RFU, CCT5 / Fold change vs veh, CCT5 / RFU, WDR92 / Fold change vs veh, WDR92 / RFU, CUX1 / Fold change vs veh, CUX1 / RFU, TTC7A / Fold change vs veh, TTC7A / RFU, TMEM135 / Fold change vs veh, TMEM135 / RFU, DEPTOR / Fold change vs veh, DEPTOR / RFU, CPM / Fold change vs veh, CPM / RFU, DNAJB6 / Fold change vs veh, DNAJB6 / RFU, CACNA2D3 / Fold change vs veh, CACNA2D3 / RFU, DTX4 / Fold change vs veh, DTX4 / RFU, TFCP2 / Fold change vs veh, TFCP2 / RFU, GMCL1 /// GMCL1P1 / Fold change vs veh, GMCL1 /// GMCL1P1 / RFU, AEBP2 / Fold change vs veh, AEBP2 / RFU, SNHG1 /// SNORD22 /// SNORD25 /// SNORD26 /// SNORD27 /// SNORD28 /// SNORD29 /// SNORD31 / Fold change vs veh, SNHG1 /// SNORD22 /// SNORD25 /// SNORD26 /// SNORD27 /// SNORD28 /// SNORD29 /// SNORD31 / Fold change (Aza/veh), C12orf56 (ProbeSet 11735607_a_at) / Fold change (ACY-1035/veh), C12orf56 (ProbeSet 11735607_a_at) / Fold change (Aza/veh), FGFR1OP (ProbeSet 11751329_s_at) / Fold change (ACY-1035/veh), FGFR1OP (ProbeSet 11751329_s_at) / Fold change (Aza/veh), VPS36 (ProbeSet 11739960_a_at) / Fold change (ACY-1035/veh), VPS36 (ProbeSet 11739960_a_at) / RFU SYPL1 (11715823_x_at) / Fold change /veh SYPL1 (11715823_x_at) / RFU IGFBP7 (11715501_s_at) / Fold change /veh IGFBP7 (11715501_s_at) / RFU REEP3 (11722064_at) / Fold change /veh REEP3 (11722064_at) / RFU IGLL1 (11728026_x_at) / Fold change /veh IGLL1 (11728026_x_at): dose or concentration left out as unconfirmed
# Settings: MV-4-11 cells, 48 hours
structure (smiles),measurement,value
Nc1ccc(-c2cccs2)cc1NC(=O)c1ccc2c(c1)cc(C1CC1)n2CCN1CCOCC1 [ACY-1035],RFU HLA-DPB1 (11760878_x_at),21.61 RFU
